Experimental data from patent publication US20240108610A1, “RECTAL ADMINISTRATION OF ROFLUMILAST FOR THE TREATMENT OF CROHN'S DISEASE” (King Abdulaziz University, priority 2022, published 2024).
Marks after values point to notes of the source that are not given here.

Key:
Type in all cases: in vivo, rat
[1] = system: trinitrobenzenesulfonic acid (TNBS)-induced colitis; test: Disease activity score in TNBS-induced chronic colitis; conditions: oral, once daily for 15 days; sulfasalazine 500 mg/kg, roflumilast 5 mg/kg; vs TNBS group
Protocol: Chronic colitis was induced by weekly rectal injections of increasing doses of TNBS over 6 weeks (15, 30, 45, 60, 60, and 60 mg from day 0 to day 35), as previously described (4,12). Briefly, after food deprivation for 24 h, rats were anesthetized with an intraperitoneal injection of 1% isoflurane. TNBS was dissolved in ethanol (50%) and instilled into the colon using a cannula (0.25 mL), and then the rats were held upside down for 3 min to prevent escape of the intracolonic TNBS. Roflumilast was dissolved in dimethyl sulfoxide and diluted in 0.5% carboxymethyl cellulose sodium to a final concentration of 5.0 mg·kg^−1·day^−1 as previously described (13). […] At the end of the treatment period, the rats were evaluated with the colitis activity score. […] At the end of the 15-day treatment period, the rats were sacrificed by cervical dislocation, and the colon was isolated, cleaned of feces, and measured for weight and length. Colonic myeloperoxidase (MPO) activity and glutathione (GSH) and malonaldehyde (MDA) levels were measured. […] The colitis activity index was determined to evaluate the activity of intestinal inflammation as previously described with a slight modification (16). […]

MPO = test: Colonic MPO in colonic tissue homogenates, TNBS-induced colitis; conditions: means±SE, n = 8
Protocol: Chronic colitis was induced by weekly rectal injections of increasing doses of TNBS over 6 weeks (15, 30, 45, 60, 60, and 60 mg from day 0 to day 35), as previously described (4,12). Briefly, after food deprivation for 24 h, rats were anesthetized with an intraperitoneal injection of 1% isoflurane. TNBS was dissolved in ethanol (50%) and instilled into the colon using a cannula (0.25 mL), and then the rats were held upside down for 3 min to prevent escape of the intracolonic TNBS. Roflumilast was dissolved in dimethyl sulfoxide and diluted in 0.5% carboxymethyl cellulose sodium to a final concentration of 5.0 mg·kg^−1·day^−1 as previously described (13). Five groups of rats (n=8) were established: normal control (NC group), TNBS-treated (TNBS group, positive control), and three TNBS-treated groups that received oral sulfasalazine (SS group, 500 mg/kg) (14), oral roflumilast (by gastric gavage, OR group, 5 mg/kg), or rectal roflumilast (RR group, 5 mg/kg). Treatments were administered once daily in a volume of 200 μL for 15 days starting 48 h after the induction of colitis (from day 37) (15), and the control rats received equal amounts of vehicle. At the end of the treatment period, the rats were evaluated with the colitis activity score. […] At the end of the 15-day treatment period, the rats were sacrificed by cervical dislocation, and the colon was isolated, cleaned of feces, and measured for weight and length. Colonic myeloperoxidase (MPO) activity and glutathione (GSH) and malonaldehyde (MDA) levels were measured. […] The levels of MPO (a marker of neutrophil activity), GSH (one of the most important cellular antioxidants), and MDA (an indicator of lipid peroxidation) in colonic tissue homogenates were measured using the commercially available kits as previously described: MPO ELISA kit (Innovative Research) (18), GSH colorimetric assay kit (Innovative Research) (19), and MDA ELISA kit (Neobio Lab Comp., USA) (20).

[2] = system: trinitrobenzenesulfonic acid (TNBS)-induced colitis; test: Histopathological examination of colonic sections (H&E, Masson trichrome, PAS)
Protocol: Chronic colitis was induced by weekly rectal injections of increasing doses of TNBS over 6 weeks (15, 30, 45, 60, 60, and 60 mg from day 0 to day 35), as previously described (4,12). Briefly, after food deprivation for 24 h, rats were anesthetized with an intraperitoneal injection of 1% isoflurane. TNBS was dissolved in ethanol (50%) and instilled into the colon using a cannula (0.25 mL), and then the rats were held upside down for 3 min to prevent escape of the intracolonic TNBS. Roflumilast was dissolved in dimethyl sulfoxide and diluted in 0.5% carboxymethyl cellulose sodium to a final concentration of 5.0 mg·kg^−1·day^−1 as previously described (13). Five groups of rats (n=8) were established: normal control (NC group), TNBS-treated (TNBS group, positive control), and three TNBS-treated groups that received oral sulfasalazine (SS group, 500 mg/kg) (14), oral roflumilast (by gastric gavage, OR group, 5 mg/kg), or rectal roflumilast (RR group, 5 mg/kg). Treatments were administered once daily in a volume of 200 μL for 15 days starting 48 h after the induction of colitis (from day 37) (15), and the control rats received equal amounts of vehicle. At the end of the treatment period, the rats were evaluated with the colitis activity score. To detect the effects of the treatments on systemic inflammatory processes, blood was collected for measurements of the proinflammatory mediators TNF-α, IL-2, and IL-6. At the end of the 15-day treatment period, the rats were sacrificed by cervical dislocation, and the colon was isolated, cleaned of feces, and measured for weight and length. Colonic myeloperoxidase (MPO) activity and glutathione (GSH) and malonaldehyde (MDA) levels were measured. The colon was examined macroscopically for gross changes and microscopically in sections stained with hematoxylin and eosin (H&E), Masson trichrome, and Periodic Acid Schiff (PAS) stains as well as KI-67 and TNF-α immunostaining. The colonic segments were fixed in 10% buffered formalin and embedded in paraffin. Afterwards, 3-5-μm-thick sections were made and stained with H&E, Masson's trichrome for collagen, and PAS for […] and mucopolysaccharides. The severity of the lesions was evaluated by a blinded histopathologist as normal, mild, moderate, or marked injury (21).

[3] = oral, once daily for 15 days, SS 500 mg/kg, OR 5 mg/kg
[4] = rectal, 5 mg/kg once daily for 15 days
[5] = oral, once daily for 15 days, sulfasalazine 500 mg/kg, roflumilast 5 mg/kg

Structure (SMILES)	Disease activity score [1]	colonic MPO activity (MPO; [3])	colonic MPO activity (MPO; [4])	PAS-stained goblet cells [2, 5]	collagen deposition, Masson trichrome [2, 5]	colonic sections stained with H&E, improvement [2, 5]	PAS-stained goblet cells [2, 4]	collagen deposition, Masson trichrome [2, 4]	colonic sections stained with H&E, improvement [2, 4]
O=C(Nc1c(Cl)cncc1Cl)c1ccc(OC(F)F)c(OCC2CC2)c1 [roflumilast]	decreased the score more than rectal roflumilast	23.89 ± 0.92^a, b, c μ/g	28.17 ± 1.00^a μ/g	moderate population	moderate decrease	moderate improvement	small population	mild decrease	mild improvement
O=C(O)c1cc(/N=N/c2ccc(S(=O)(=O)Nc3ccccn3)cc2)ccc1O [sulfasalazine]	greatest decrease	18.38 ± 0.87^a μ/g	–	nearly normal population	marked decrease	marked improvement	–	–	–
